Laboratory results published in patent US20260083676A1, “SPRAY-DRIED AMORPHOUS SOLID DISPERSIONS AND METHOD FOR PREPARATION” (Merck Patent GMbH, priority 2022, published 2026).

Experiments:
[1] = X-ray powder diffraction and DSC of spray-dried products; type: physicochemical; conditions: raw material and spray dried dispersion with PVA 3-82; FIG. 24 to 26
Description: (§1) Diffractograms of powders were measured using an Miniflex 600 X-ray diffractometer (Rigaku, Japan) with CuKα radiation (λ=1.54 A). Samples were scanned in reflectance mode from 3° to 50° 2θ (deg), with a scan speed of 10° 2θ (deg)/min and a step size of 0.020° 2θ (deg) and results are shown in FIG. 2. The acceleration voltage and current are 45 kV and 15 mA.
The DSC thermograms of the samples as shown in FIG. 3 were collected using a DSC 3 (METTLER, U.S.) under a nitrogen gas flow of 50 ml/min. A total of 2-5 mg sample powder was filled into an aluminum Tzero pan (40 μL) and sealed with an aluminum Tzero lid. The sample was analyzed at a heating rate of 5° C./min from −25° C. to 230° C.
Spray-drying of ASDs has been prepared as described in Example 2, XRD measurements have been performed as described in Example 1.
as §1, with “(deg).” for “(deg) and results are shown in FIG. 2.”

[2] = Dissolution measurement of PROTAC ARV-110 ASD in phosphate buffer pH 6.8; type: physicochemical; conditions: phosphate buffer pH 6.8, room temperature, 0.2 mg/ml, 120 minutes; FIG. 23
Description: For PROTAC ARV-110, the dissolution of the samples was determined at room temperature in phosphate buffer pH 6.8 as dissolution medium. 5 mg of bulk drug or spray dried powder samples equivalent to 5 mg of drug were weighted and placed into a 100 ml of Erlenmeyer flask, subsequently a magnetic stirring bar was added to the Erlenmeyer flask and stirred at 200 rpm, then 25 ml of dissolution medium was added. (concentration: 0.2 mg/ml)
At predetermined time points (5, 10, 20, 40, 60, 90, 120 min), 500 μl of sample were withdrawn from the dissolution vessels and immediately replaced by 500 μl of fresh dissolution medium. The dissolution samples were then filtered through a 0.45 μm filter. The sample is diluted with Eluent B (1:1). Finally, the samples were analyzed towards drug content using HPLC.
A C8-Column (Waters XBridge Column C8, 4.6×50 mm, 3.5 μm) column was used for the quantification.
The eluents are composed as follows: Eluent A: 0.1% formic acid in water; Eluent B: 0.1% formic acid in acetonitrile. Method: linear gradient of 10% to 90% Eluent B in 2 minutes at 1.7 ml/min flow rate.

solid state (XRD) [1]: crystalline
SMILES: N#Cc1ccc(O[C@H]2CC[C@H](NC(=O)c3ccc(N4CCC(CN5CCN(c6cc7c(cc6F)C(=O)N(C6CCC(=O)NC6=O)C7=O)CC5)CC4)nn3)CC2)cc1Cl (some centres unmarked) [ARV-110]
dissolution [2]: neither the raw PROTAC 1, PROTAC 2 nor ARV110 show any measurable dissolution
